# Reference: patent US20070265164A1, “Active Substances for Increasing Pathogenic Defense in Plants and Methods for the Detection Thereof” (Bayer Cropscience GmbH, priority 2004, published 2007)
# How the values were obtained:
# Assay type in all cases: in vivo
# Set-up in all cases: fold induction: dose or concentration left out as unconfirmed
# [1] = test system: Contig6194_a_at, 12-oxophytodienoic acid reductase; experiment: GEP, barley DNA chip, probe set 1.7; settings: for fold induction / fold induction at 150 g/ha: Hordeum vulgare, topical, read-out: Expression value, 1.7 Contig6194_a_at; for fold induction: rates of Table 1 (S7 500); for fold induction at 150 g/ha: 6 h
# Experimental: (§1) Barley plants (cv. Baronesse) were grown in compost-filled pots (diameter: 10 cm) for 10 days in a controlled-environment cabinet under defined light, humidity and temperature conditions (white light, 70% atmospheric humidity, 24° C.). At the time of spray application, the seedlings were approximately 15 cm in size. The test substances selected in this example were molecules which differ markedly in their structure and which have a well documented pronounced safener effect, and other molecules which are known from the literature to have an effect on plant stress and pathogen tolerance (Table 1). The substances were prepared as stock solutions in DMSO (dimethyl sulfoxide) at c=10 mg/ml). This was used for preparing dilutions in water supplemented with 0.2% Agrotin (comprises polyvinyl alcohol, silicones, polysaccharides and pH regulators, manufacturer: Bayer CropScience AG, Monheim, Germany), as wetter, to give the application rates shown in the table. The amount of liquid for the spray application was 800 μl per pot, corresponding to 800 l/ha. For each 800 μl of spray mixture, 16 μl of EC premix: diacetone alcohol=1:6 were additionally added as formulation auxiliaries. The substances listed in Table 1 were applied to the leaves by means of a pneumatic spray pistol. Each substance was sprayed as 2 dosages, and all experiments were carried out as replicates (2 pots per substance). Sprayings with blank formulation without active ingredient were carried out as controls. After 6 hours, the leaves were harvested, frozen in liquid nitrogen and stored at −80° C. until further use. The labeled RNA probes for the DNA chip hybridization were prepared as described in the protocols (Expression Analysis, Technical Manual) from Affymetrix (Affymetrix Inc., 3380 Central Expressway, Santa Clara, Calif., USA). First, total RNA was isolated from in each case 500 mg of the harvested leaves. In each case 10 μg of total RNA was used for the first-strand and second-strand cDNA synthesis. The cDNA was amplified with T7 polymerase and simultaneously labeled with biotin-UTP. In each case, 20 μg of this biotinylated cDNA was employed for the hybridization of the barley genome array (Gene Chip Barleyl, order No.: 511012) from Affymetrix. This DNA microarray comprises DNA sequences of 22 840 genes which are composed of a total of 400 000 EST sequences. Thereafter, the DNA microarrays were washed in the Affymetrix Fluidics Station, stained with streptavidin/phycoerythrin (Molecular Probes, P/N S-866) and scanned with the matching Agilent Laser Scanner (Agilent Gene Array Scanner). The fluorescent data obtained were analyzed with the software Microarray Suite 5 from Affymetrix. After the quality had been checked, all DNA chip analyses were stored in a database. To determine the relative expression values for genes (induction factors, repression factors), test and control chips were compared with each other, and the scoring function set by the Affymetrix software was used as the basis. The 2 biological replications of one experiment were compared in each case with 2 control chips (blank formulation), and the 4 expression values obtained for each gene were used for calculating the median. These medians are shown in the results tables as induction factors. Similarity comparisons of expression profiles from different experiments and cluster analyses were carried out using the software GeneMaths 1.5 from Applied Maths (Applied Maths, Keistraat 120, 9830 Sint-Martens-Latem, Belgium).
# (§2) Gene groups from specific metabolic pathways and signal transduction chains were put together by key word search in the annotations, of the genes, which were also provided by Affymetrix, and by Blast analyses (homology comparisons) of the DNA target sequences, i.e. of the positive sequence (identified on the basis of a modified expression profile) identified on the DNA chip, using gene sequences from other organisms, preferably plant organisms, with characterized functions. […]
# [2] = test system: Contig13413_at, Similar to lipases; experiment: GEP, barley DNA chip, probe set 1.17; settings: for fold induction / fold induction at 150 g/ha: Hordeum vulgare, topical, read-out: Expression value, 1.17 Contig13413_at; for fold induction: rates of Table 1 (S7 500); for fold induction at 150 g/ha: 6 h
# Experimental: as §1, §2
# [3] = test system: Contig5023_at, Class III chitinase; experiment: GEP, barley DNA chip, probe set 5.3; settings: for fold induction / fold induction at 150 g/ha: Hordeum vulgare, topical, read-out: Expression value, 5.3 Contig5023_at; for fold induction: rates of Table 1 (S7 500); for fold induction at 150 g/ha: 6 h
# Experimental: as §1, §2
# [4] = test system: Contig8905_at, Xytanase inhibitor protein; experiment: GEP, barley DNA chip, probe set 3.1; settings: for fold induction / fold induction at 150 g/ha: Hordeum vulgare, topical, read-out: Expression value, 3.1 Contig8905_at; for fold induction: rates of Table 1 (S7 500); for fold induction at 150 g/ha: 6 h
# Experimental: as §1, §2
# [5] = test system: Contig 4986_at, Allene oxide cyclase; experiment: GEP, barley DNA chip, probe set 1.5; settings: for fold induction / fold induction at 150 g/ha: Hordeum vulgare, topical, read-out: Expression value, 1.5 Contig 4986_at; for fold induction: rates of Table 1 (S7 500); for fold induction at 150 g/ha: 6 h
# Experimental: as §1, §2
# [6] = test system: HD07M22r_s_at, Proteinase-Inhibitor (pir S71555, barley); experiment: GEP, barley DNA chip, probe set 2.4; settings: for fold induction / fold induction at 150 g/ha: Hordeum vulgare, topical, read-out: Expression value, 2.4 HD07M22r_s_at; for fold induction: rates of Table 1 (S7 500); for fold induction at 150 g/ha: 6 h
# Experimental: as §1, §2
# [7] = test system: Contig5146_at, Probable 12-oxophytodienoate reductase (EC 1.3.1.42); experiment: GEP, barley DNA chip, probe set 1.4; settings: for fold induction / fold induction at 150 g/ha: Hordeum vulgare, topical, read-out: Expression value, 1.4 Contig5146_at; for fold induction: rates of Table 1 (S7 500); for fold induction at 150 g/ha: 6 h
# Experimental: as §1, §2
# [8] = test system: Contig2118_at, Peroxidase (EC 1.11.1.7), pathogen-induced; experiment: GEP, barley DNA chip, probe set 4.1; settings: for fold induction / fold induction at 150 g/ha: Hordeum vulgare, topical, read-out: Expression value, 4.1 Contig2118_at; for fold induction: rates of Table 1 (S7 500); for fold induction at 150 g/ha: 6 h
# Experimental: as §1, §2
# [9] = test system: Contig2088_s_at, Bowman-Birk type trypsin inhibitor; experiment: GEP, barley DNA chip, probe set 2.1; settings: for fold induction / fold induction at 150 g/ha: Hordeum vulgare, topical, read-out: Expression value, 2.1 Contig2088_s_at; for fold induction: rates of Table 1 (S7 500); for fold induction at 150 g/ha: 6 h
# Experimental: as §1, §2
# [10] = test system: Contig5607_s_at, Pathogen-related protein (PirT06168); experiment: GEP, barley DNA chip, probe set 4.3; settings: for fold induction / fold induction at 150 g/ha: Hordeum vulgare, topical, read-out: Expression value, 4.3 Contig5607_s_at; for fold induction: rates of Table 1 (S7 500); for fold induction at 150 g/ha: 6 h
# Experimental: as §1, §2
# [11] = test system: Contig6611_at, Similar to lipases; experiment: GEP, barley DNA chip, probe set 1.12; settings: for fold induction / fold induction at 150 g/ha: Hordeum vulgare, topical, read-out: Expression value, 1.12 Contig6611_at; for fold induction: rates of Table 1 (S7 500); for fold induction at 150 g/ha: 6 h
# Experimental: as §1, §2
# [12] = test system: HV_Ceb0020D05r2_s_at, Allene oxide cyclase; experiment: GEP, barley DNA chip, probe set 1.6; settings: Hordeum vulgare, topical, read-out: Expression value, 1.6 HV_Ceb0020 D05r2_s_at; for fold induction: barley leaves 6 h after spray application, rates of Table 1 (S7 500), median induction factor vs control; for fold induction at 150 g/ha: 6 h
# Experimental: as §1, §2
# [13] = barley leaves 6 h after spray application, rates of Table 1 (150 g a.i./ha, S7 500), median induction factor vs control
# [14] = barley leaves 6 h after spray application, median induction factor vs control
Structure (SMILES),"fold induction [1, 14]","fold induction [2, 14]","fold induction [3, 14]","fold induction [4, 14]","fold induction [5, 14]","fold induction [6, 14]","fold induction [7, 14]","fold induction [8, 14]","fold induction [9, 14]","fold induction [10, 14]",fold induction [12],"fold induction [11, 14]",other results
"O=C(NO)c1ccccc1O [S7, Salicyl hydroxamate]",,,,,,,,,,,,,"Expression value, 1.7 Contig6194_a_at [1, 13]: 1.00 x times; Expression value, 1.17 Contig13413_at [2, 13]: 1.00 x times; Expression value, 5.3 Contig5023_at [3, 13]: 1.00 x times; Expression value, 3.1 Contig8905_at [4, 13]: 1.00 x times; Expression value, 1.5 Contig 4986_at [5, 13]: 1.00 x times; Expression value, 2.4 HD07M22r_s_at [6, 13]: 1.00 x times; Expression value, 1.4 Contig5146_at [7, 13]: 1.00 x times; Expression value, 4.1 Contig2118_at [8, 13]: 1.00 x times; Expression value, 2.1 Contig2088_s_at [9, 13]: 4.79 x times; Expression value, 4.3 Contig5607_s_at [10, 13]: 1.00 x times; Expression value, 1.12 Contig6611_at [11, 13]: 2.31 x times"
O=C(O)c1cc(Cl)cc(Cl)c1O [S10],1,1,1,1,1,1,1,1,2.41,1,1,2.38,
"CSC(=O)c1cccc2nnsc12 [S8, Acibenzolar-S-methyl]",1,2.17,1,1,1,1,1,1,7.36,1,1,3.61,
CCOC(=O)C(Oc1ccc(Cl)c2cccnc12)C(=O)OCC [S5],2.81,1,2.73,3.01,1,7.84,5.35,2.33,1,8.75,1,1,
"COC(=O)C1=NN(c2ccc(Cl)cc2Cl)C(C)(C(=O)OC)C1 (centres unmarked) [S1, Mefenpyr-dimethyl]",12.9,1,9.51,3.1,1,6.32,7.73,8.69,1,18.6,1,1,
O=C(O)C1=NN(c2ccc(Cl)cc2Cl)C(c2ccc(F)cc2)C1 (centres unmarked) [S2],4.14,1,3.18,2.53,1,1,4.47,1,1,15.6,1,1,
"CCOC(=O)C1=NOC(c2ccccc2)(c2ccccc2)C1 [S3, Isoxadifen-ethyl]",,,,,,,,,,,,,fold induction at 150 g/ha [1]: 3.25; fold induction at 150 g/ha [2]: 1; fold induction at 150 g/ha [3]: 1; fold induction at 150 g/ha [4]: 2.99; fold induction at 150 g/ha [5]: 3.76; fold induction at 150 g/ha [6]: 2.71; fold induction at 150 g/ha [7]: 4.5; fold induction at 150 g/ha [8]: 4.86; fold induction at 150 g/ha [9]: 4.26; fold induction at 150 g/ha [10]: 13.4; fold induction at 150 g/ha [12]: 3.68; fold induction at 150 g/ha [11]: 2.41
NC(=O)c1ccc(C(F)(F)F)nc1O [S6],3.16,1,1,2.45,1,5.1,6.77,2.2,1,9.99,1,1,
O=C(O)c1cc(Cl)nc(Cl)c1 [S9],,,,,,,,,,,,,fold induction at 150 g/ha [1]: 1; fold induction at 150 g/ha [2]: 1; fold induction at 150 g/ha [3]: 4.56; fold induction at 150 g/ha [4]: 2.53; fold induction at 150 g/ha [5]: 1; fold induction at 150 g/ha [6]: 1; fold induction at 150 g/ha [7]: 1; fold induction at 150 g/ha [8]: 1; fold induction at 150 g/ha [9]: 2.36; fold induction at 150 g/ha [10]: 1; fold induction at 150 g/ha [12]: 1; fold induction at 150 g/ha [11]: 2
